According to patent US20230165865A1, “HETEROARYLDIHYDROPYRIMIDINE DERIVATIVES AND METHODS OF TREATING HEPATITIS B INFECTIONS” (Janssen Pharmaceutica NV, priority 2018, published 2023):
pEC50: −log10 of the molar value. Read-outs that look alike come from different tables or passages of the source.

Legend:
[1] = Cytotoxicity determination in HepG2.2.15 cells (CCK-8 assay); assay type: cell-based; details: human, 6 days treatment, CCK-8, highest concentration 100 uM
Description: (§1) HepG2.2.15 (the HepG2.2.15 cell line can be produced by transfection of the HepG2 cell line as described in Sells, Chen, and Acs 1987 (Proc. Natl. Acad. Sci. USA 84: 1005-1009), and the HepG2 cell line is available from ATCC® under number HB-8065™)
(§2) HepG2.2.15 cells were plated into 96-well plate in 2% FBS culture medium at the density of 40,000 cells/well and 5,000cells/well for HBV inhibitory activity and cytotoxicity determination, respectively. After incubation at 37° C., 5% CO2 overnight, cells were treated with medium containing compounds for 6 days with medium and compounds refreshed after 3 days of treatment. Each compound was tested in a 1:3 serial dilutions at 8 different concentrations in triplicate. The highest concentration of the compounds was 10 uM or 1 uM for anti-HBV activity assay and 100 uM for cytotoxicity determination.
Cell viability was determined by CCK-8 assay. After 6 days of compounds treatment, 20 μl CCK-8 reagents were added to each well of cytotoxicity assay plates. Cell plates were incubated at 37° C., 5% CO2 for 2.5 h. The absorbance at 450 nm wavelength and the absorbance at 630 nm wavelength as reference was measured.
(§3) EC50 and CC50 values are calculated by the […] PRISM software.

HBV = assay: Anti-viral assay in HepG2.2.15 cells: anti-HBV activity, HBV DNA in culture medium by qPCR; assay type: cell-based; details: HepG2.2.15 cells, 6 days treatment, HBV DNA by qPCR, read-out: EC50
Description: as §1, §2
The change of HBV DNA level induced by the compounds was assessed by quantitative real-time polymerase chain reaction (qPCR). Briefly, the HBV DNA in the culture medium was extracted using QIAamp 96 DNA Blood Kit according to the manual and then quantified by real-time PCR assay using the primers and probe in the table 1 below.
as §3

[2] = Hepatitis B virus, HepG2.2.15, 144 h

Row | SMILES | CC50 at 6 days [1] | pEC50 (HBV; [2]) | pEC50 (HBV)
1 | COC(=O)C1=C(CN2CCN3C(=S)N(CC(C)(C)C(=O)O)CC3C2)NC(c2ncoc2C)=NC1c1cccc(F)c1C (single isomer, unassigned) [Compound 31A, 3-(7-((6-(3-Fluoro-2-methylphenyl)-5-(methoxycarbonyl)-2-(5-methyloxazol-4-yl)-3,6-dihydropyrimidin-4-yl)methyl)-3-thioxohexahydroimidazo[1,5-a]pyrazin-2(3H)-yl)-2,2-dimethylpropanoic acid] | 43700 nM | 7.82 | –
2 | CCOC(=O)C1=C(CN2CCN3C(=S)N(CC4(C(=O)O)CC4)CC3C2)NC(c2nccs2)=NC1c1cccc(F)c1Cl (stereo not drawn) [Compound 5, 1-((7-((6-(2-Chloro-3-fluorophenyl)-5-(ethoxycarbonyl)-2-(thiazol-2-yl)-3,6-dihydropyrimidin-4-yl)methyl)-3-thioxohexahydroimidazo[1,5-a]pyrazin-2(3H)-yl)methyl)cyclopropanecarboxylic acid] | 11800 nM | 8.77 | –
3 | CCOC(=O)C1=C(CN2CCN3C(=S)N(CC4(C(=O)O)CCC4)CC3C2)NC(c2nccs2)=N[C@H]1c1cccc(F)c1C (single isomer, unassigned) [Compound 29B] | 11200 nM | 8.82 | –
4 | CCOC(=O)C1=C(CN2CCN3C(=S)N(CC(C)(C)C(=O)O)CC[C@@H]3C2)NC(c2nccs2)=N[C@H]1c1cccc(F)c1C [Compound 6A, 3-((R)-2-(((S)-5-(ethoxycarbonyl)-6-(3-fluoro-2-methylphenyl)-2-(thiazol-2-yl)-3,6-dihydropyrimidin-4-yl)methyl)-6-thioxohexahydro-2H-pyrazino[1,2-c]pyrimidin-7(6H)-yl)-2,2-dimethylpropanoic acid] | 11400 nM | 7.71 | –
5 | CCOC(=O)C1=C(CN2CCN3C(=S)N(CC(C)(C)C(=O)O)CC3C2)NC(c2nccs2)=NC1c1ccc(F)c(F)c1Cl (single isomer, unassigned) [Compound 14A, 3-(7-((6-(2-Chloro-3,4-difluorophenyl)-5-(ethoxycarbonyl)-2-(thiazol-2-yl)-3,6-dihydropyrimidin-4-yl)methyl)-3-thioxohexahydroimidazo[1,5-a]pyrazin-2(3H)-yl)-2,2-dimethylpropanoic acid] | 9600 nM | 8.92 | –
6 | CCOC(=O)C1=C(CN2CCN3C(=S)N(CC(C)(C)C(=O)O)C[C@@H]3C2)NC(c2nccs2)=N[C@@H]1c1ccc(F)nc1C (single isomer, unassigned) [Compound 37, 3-(7-((5-(ethoxycarbonyl)-6-(6-fluoro-2-methylpyridin-3-yl)-2-(thiazol-2-yl)-3,6-dihydropyrimidin-4-yl)methyl)-3-thioxohexahydroimidazo[1,5-a]pyrazin-2(3H)-yl)-2,2-dimethylpropanoic acid] | ≥ 100000 nM | 7.00 | –
7 | CCOC(=O)C1=C(CN2CCN3C(=S)N(CC(C)(C)C(=O)O)CC3C2)NC(c2ncoc2C)=NC1c1cccc(F)c1C (single isomer, unassigned) [Compound 26A, 3-(7-((5-(Ethoxycarbonyl)-6-(3-fluoro-2-methylphenyl)-2-(5-methyloxazol-4-yl)-3,6-dihydropyrimidin-4-yl)methyl)-3-thioxohexahydroimidazo[1,5-a]pyrazin-2(3H)-yl)-2,2-dimethylpropanoic acid] | 26200 nM | 7.88 | –
8 | CCOC(=O)C1=C(CN2CCN3C(=S)N(CC(C)(C)C(=O)O)C[C@@H]3C2)NC(c2nccs2)=N[C@@H]1c1ccc(F)c(F)c1C (single isomer, unassigned) [Compound 15A, 3-(7-((6-(3,4-Difluoro-2-methylphenyl)-5-(ethoxycarbonyl)-2-(thiazol-2-yl)-3,6-dihydropyrimidin-4-yl)methyl)-3-thioxohexahydroimidazo[1,5-a]pyrazin-2(3H)-yl)-2,2-dimethylpropanoic acid] | 25600 nM | 8.34 | –
9 | CCOC(=O)C1=C(CN2CCN3C(=S)N(CC(C)(C)C(=O)O)CC3C2)NC(c2nccs2)=NC1c1ccc(F)c(F)c1Cl (stereo not drawn) [Compound 14, 3-(7-((6-(2-Chloro-3,4-difluorophenyl)-5-(ethoxycarbonyl)-2-(thiazol-2-yl)-3,6-dihydropyrimidin-4-yl)methyl)-3-thioxohexahydroimidazo[1,5-a]pyrazin-2(3H)-yl)-2,2-dimethylpropanoic acid] | 10600 nM | 8.23 | –
10 | COC(=O)C1=C(CN2CCN3C(=S)N(CC(C)(C)C(=O)O)C[C@@H]3C2)NC(c2ncoc2C)=N[C@H]1c1ccc(F)cc1Cl (single isomer, unassigned) [Compound 34A, 3-(7-((6-(2-Chloro-4-fluorophenyl)-5-(methoxycarbonyl)-2-(5-methyloxazol-4-yl)-3,6-dihydropyrimidin-4-yl)methyl)-3-thioxohexahydroimidazo[1,5-a]pyrazin-2(3H)-yl)-2,2-dimethylpropanoic acid] | 47400 nM | 8.10 | –
11 | CCOC(=O)C1=C(CN2CCN3C(=CC#N)N(CC(C)(C)C(=O)O)CC3C2)NC(c2nccs2)=N[C@H]1c1cccc(F)c1C (stereo partly drawn) [Compound 7, 3-(3-(Cyanomethylene)-7-(((S)-5-(ethoxycarbonyl)-6-(3-fluoro-2-methylphenyl)-2-(thiazol-2-yl)-3,6-dihydropyrimidin-4-yl)methyl)hexahydroimidazo[1,5-a]pyrazin-2(3H)-yl)-2,2-dimethylpropanoic acid] | 68700 nM | 6.14 | –
12 | CCOC(=O)C1=C(CN2CCN3C(=S)N(C)C[C@@H]3[C@H]2C(=O)O)NC(c2nccs2)=N[C@H]1c1cccc(F)c1Cl (relative stereo) [Compound 19A, (trans)-7-((6-(2-chloro-3-fluorophenyl)-5-(ethoxycarbonyl)-2-(thiazol-2-yl)-3,6-dihydropyrimidin-4-yl)methyl)-2-methyl-3-thioxooctahydro-imidazo[1,5-a]pyrazine-8-carboxylic acid] | 89900 nM | 7.39 | –
13 | CCOC(=O)C1=C(CN2CCN3C(=S)N(CC(C)(C)C(=O)O)CC3C2)NC(c2nccs2)=NC1c1ccc(F)cc1Br (single isomer, unassigned) [Compound 13A, 3-(7-((6-(2-Bromo-4-fluorophenyl)-5-(ethoxycarbonyl)-2-(thiazol-2-yl)-3,6-dihydropyrimidin-4-yl)methyl)-3-thioxohexahydroimidazo[1,5-a]pyrazin-2(3H)-yl)-2,2-dimethylpropanoic acid] | 14700 nM | 9.00 | –
14 | CCOC(=O)C1=C(CN2CCN3C(=S)N(CC(C)(C)C(=O)O)C[C@@H]3C2)NC(c2ncc(F)cc2F)=N[C@H]1c1cccc(F)c1C (single isomer, unassigned) [Compound 22A, 3-(7-((2-(3,5-difluoropyridin-2-yl)-5-(ethoxycarbonyl)-6-(3-fluoro-2-methylphenyl)-3,6-dihydropyrimidin-4-yl)methyl)-3-thioxohexahydroimidazo-[1,5-a]pyrazin-2(3H)-yl)-2,2-dimethylpropanoic acid] | 12800 nM | 8.05 | –
15 | CCOC(=O)C1=C(CN2CCN3C(=S)N(CC(CC)C(=O)O)CC3C2)NC(c2nccs2)=N[C@H]1c1cccc(F)c1C (stereo partly drawn) [Compound 17, 2-((7-(((S)-5-(ethoxycarbonyl)-6-(3-fluoro-2-methylphenyl)-2-(thiazol-2-yl)-3,6-dihydropyrimidin-4-yl)methyl)-3-thioxohexahydroimidazo[1,5-a]pyrazin-2(3H)-yl)methyl)butanoic acid] | 13200 nM | 8.25 | –
16 | COC(=O)C1=C(CN2CCN3C(=S)N(CC(C)(C)C(=O)O)C[C@@H]3C2)NC(c2nccs2)=N[C@H]1c1ccc(F)cc1Br (single isomer, unassigned) [Compound 16B, 3-(7-((6-(2-Bromo-4-fluorophenyl)-5-(methoxycarbonyl)-2-(thiazol-2-yl)-3,6-dihydropyrimidin-4-yl)methyl)-3-thioxohexahydroimidazo[1,5-a]pyrazin-2(3H)-yl)-2,2-dimethylpropanoic acid] | 29500 nM | 6.09 | –
17 | CCOC(=O)C1=C(CN2CCN3C(=S)N(CC(C)(C)C(=O)O)CC3C2)NC(c2nccs2)=NC1c1cccc(F)c1Cl (single isomer, unassigned) [Compound 3A, 3-(7-((6-(2-chloro-3-fluorophenyl)-5-(ethoxycarbonyl)-2-(thiazol-2-yl)-3,6-dihydropyrimidin-4-yl)methyl)-3-thioxohexahydroimidazo[1,5-a]pyrazin-2(3H)-yl)-2,2-dimethylpropanoic acid] | 25200 nM | – | 7.72
18 | CCOC(=O)C1=C(CN2CCN3C(=S)N(c4ccc(C(=O)O)cc4)CC3C2)NC(c2nccs2)=N[C@H]1c1cccc(F)c1C (stereo in doubt) [Compound 23, 4-(7-((5-(ethoxycarbonyl)-6-(3-fluoro-2-methylphenyl)-2-(thiazol-2-yl)-3,6-dihydropyrimidin-4-yl)methyl)-3-thioxohexahydroimidazo[1,5-a]pyrazin-2(3H)-yl)benzoic acid] | 2600 nM | 8.34 | –
